From ChEMBL document CHEMBL1135322, “Glutathione-like tripeptides as inhibitors of glutathionylspermidine synthetase. Part 1: Substitution of the glycine carboxylic acid group” (Bioorg Med Chem Lett, 2002)
Several values for one entry are separate records, joined by “and”; a condition that tells them apart may be missing. Identical values can stand only once. Where a SMILES comes first, the peptide text is derived from it.

T1: Glutathionylspermidine synthase (Crithidia fasciculata) (UniProt P90518)
T1 sequence (whole entry): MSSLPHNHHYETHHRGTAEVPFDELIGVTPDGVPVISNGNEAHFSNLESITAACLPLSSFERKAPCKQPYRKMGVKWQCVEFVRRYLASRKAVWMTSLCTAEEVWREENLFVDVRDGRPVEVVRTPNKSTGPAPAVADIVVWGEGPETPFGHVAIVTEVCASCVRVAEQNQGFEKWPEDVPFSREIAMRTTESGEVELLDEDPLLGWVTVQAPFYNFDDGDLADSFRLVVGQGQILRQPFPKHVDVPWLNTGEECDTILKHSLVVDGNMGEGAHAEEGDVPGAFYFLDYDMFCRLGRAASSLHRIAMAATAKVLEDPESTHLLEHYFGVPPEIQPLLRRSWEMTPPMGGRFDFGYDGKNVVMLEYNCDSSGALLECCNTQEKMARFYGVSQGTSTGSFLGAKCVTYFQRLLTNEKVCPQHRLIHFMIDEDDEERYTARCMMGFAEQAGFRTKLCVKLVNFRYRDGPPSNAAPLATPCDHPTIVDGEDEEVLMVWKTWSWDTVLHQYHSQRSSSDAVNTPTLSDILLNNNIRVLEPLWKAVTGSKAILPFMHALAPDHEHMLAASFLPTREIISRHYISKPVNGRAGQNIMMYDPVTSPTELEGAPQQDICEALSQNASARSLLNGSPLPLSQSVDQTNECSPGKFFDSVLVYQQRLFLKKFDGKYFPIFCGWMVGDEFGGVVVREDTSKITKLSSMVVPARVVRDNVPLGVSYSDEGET

T2: Glutathionylspermidine synthase (Crithidia fasciculata, UniProt P90518)
T2 sequence (P90518 whole entry): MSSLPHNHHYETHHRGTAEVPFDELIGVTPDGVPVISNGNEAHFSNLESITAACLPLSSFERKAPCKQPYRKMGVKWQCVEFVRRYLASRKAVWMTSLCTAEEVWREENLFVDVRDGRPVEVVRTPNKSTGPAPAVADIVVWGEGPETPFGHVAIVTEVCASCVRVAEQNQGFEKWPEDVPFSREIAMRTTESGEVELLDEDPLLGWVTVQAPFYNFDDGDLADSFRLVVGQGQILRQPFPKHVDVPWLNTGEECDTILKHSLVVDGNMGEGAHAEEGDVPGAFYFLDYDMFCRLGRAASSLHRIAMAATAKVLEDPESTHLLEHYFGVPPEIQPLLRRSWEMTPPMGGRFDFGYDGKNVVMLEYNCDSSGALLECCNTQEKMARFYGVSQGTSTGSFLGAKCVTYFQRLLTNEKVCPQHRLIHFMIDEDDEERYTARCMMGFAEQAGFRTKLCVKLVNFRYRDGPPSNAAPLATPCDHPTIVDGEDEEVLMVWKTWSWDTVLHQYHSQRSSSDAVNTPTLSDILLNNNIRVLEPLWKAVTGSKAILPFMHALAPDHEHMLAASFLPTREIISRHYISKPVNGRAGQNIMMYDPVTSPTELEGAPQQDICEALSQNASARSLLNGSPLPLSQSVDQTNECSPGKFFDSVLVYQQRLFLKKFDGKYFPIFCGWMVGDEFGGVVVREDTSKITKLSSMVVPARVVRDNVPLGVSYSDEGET


Legend:
[1] = molecular target: T1, Glutathionylspermidine synthase (Crithidia fasciculata); test: Compound was tested for percent inhibition towards the enzyme Glutathionylspermidine Synthetase wild-type enzyme and compared with 0.5 mM GSH
[2] = molecular target: T2, Glutathionylspermidine synthase; test: Concentration required for the inhibition of enzyme Glutathionylspermidine Synthetase wild-type enzyme
[3] = molecular target: T1, Glutathionylspermidine synthase (Crithidia fasciculata); test: Compound was tested for substrate activity towards the enzyme Glutathionylspermidine Synthetase wild-type enzyme and compared with 0.5 mM GSH
[4] = molecular target: T2, Glutathionylspermidine synthase; test: Inhibition constant was evaluated against enzyme Glutathionylspermidine Synthetase; NA denotes not applicable
[5] = molecular target: T3, Glutathionylspermidine synthase (Crithidia fasciculata, UniProt P90518, C79A); test: Inhibitory activity against amidase free Glutathionylspermidine Synthetase mutant (C79A); NA denotes not applicable
T3 sequence (P90518 whole entry C79A): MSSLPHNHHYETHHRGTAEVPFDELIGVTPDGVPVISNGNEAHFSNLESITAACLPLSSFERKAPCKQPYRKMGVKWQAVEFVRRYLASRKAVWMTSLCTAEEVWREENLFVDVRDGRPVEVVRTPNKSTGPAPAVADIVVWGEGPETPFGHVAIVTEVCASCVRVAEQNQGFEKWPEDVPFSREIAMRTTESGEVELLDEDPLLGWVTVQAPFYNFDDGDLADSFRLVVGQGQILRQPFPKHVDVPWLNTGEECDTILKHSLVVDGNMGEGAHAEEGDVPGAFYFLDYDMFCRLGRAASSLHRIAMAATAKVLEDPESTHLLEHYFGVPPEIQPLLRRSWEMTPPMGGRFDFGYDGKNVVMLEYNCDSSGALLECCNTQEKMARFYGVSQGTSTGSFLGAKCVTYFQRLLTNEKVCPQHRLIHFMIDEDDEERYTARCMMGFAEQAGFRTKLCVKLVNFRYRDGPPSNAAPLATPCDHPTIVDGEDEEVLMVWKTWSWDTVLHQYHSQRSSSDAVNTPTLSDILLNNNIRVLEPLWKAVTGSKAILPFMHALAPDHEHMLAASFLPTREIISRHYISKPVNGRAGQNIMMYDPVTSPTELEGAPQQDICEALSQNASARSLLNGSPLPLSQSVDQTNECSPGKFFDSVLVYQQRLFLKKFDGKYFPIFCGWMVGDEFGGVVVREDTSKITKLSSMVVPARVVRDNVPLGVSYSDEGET

[6] = Half-life was determined; assay type: ADME; details: human
[7] = molecular target: T1, Glutathionylspermidine synthase (Crithidia fasciculata); test: (§1) Substrate activity against amidase free Glutathionylspermidine Synthetase mutant (C79A)
[8] = molecular target: T1, Glutathionylspermidine synthase (Crithidia fasciculata); test: (§2) Inhibitory activity against amidase free Glutathionylspermidine Synthetase mutant (C79A); details: concentration not given here
[9] = molecular target: T2, Glutathionylspermidine synthase; test: Concentration required for the inhibition of enzyme Glutathionylspermidine Synthetase wild-type enzyme; NA denotes not applicable
[10] = molecular target: T2, Glutathionylspermidine synthase; test: Inhibition constant was evaluated against enzyme Glutathionylspermidine Synthetase wild-type enzyme; NA denotes not applicable
[11] = molecular target: T3, Glutathionylspermidine synthase; test: as §2
[12] = molecular target: T3, Glutathionylspermidine synthase; test: Inhibitory constant against amidase free Glutathionylspermidine Synthetase mutant (C79A)
[13] = molecular target: T3, Glutathionylspermidine synthase; test: Inhibitory constant against amidase free Glutathionylspermidine Synthetase mutant (C79A); NA denotes not applicable
[14] = molecular target: T2, Glutathionylspermidine synthase; test: Inhibition constant was evaluated against enzyme Glutathionylspermidine Synthetase wild-type enzyme
[15] = substrate: CC(C)C[C@H](NC(=O)CC[C@H](N)C(=O)O)C(=O)NCC(N)=O; test: as §1; details: Crithidia fasciculata
[16] = substrate: CC(C)C[C@H](NC(=O)CC[C@H](N)C(=O)O)C(=O)NCC(=O)O; test: Compound was tested for substrate activity (Apparent Km) towards the enzyme Glutathionylspermidine Synthetase wild-type enzyme and compared with 0.5 mM GSH; details: Crithidia fasciculata
[17] = substrate: CC(C)C[C@H](NC(=O)CC[C@H](N)C(=O)O)C(=O)NCc1nn[nH]n1; test: Michaelis-Menten constant at the concentration of < 0.4 mM; details: Crithidia fasciculata

Molecule	inhibition [1] [%]	IC50 [2] [µM]	Activity [3] [%]	Activity [7] [%]	inhibition [8] [%]	also measured
Cc1ccc(S(=O)(=O)NC(=O)CNC(=O)[C@H](CC(C)C)NC(=O)CC[C@H](N)C(=O)O)cc1	2	2	2			
CC(C)C[C@H](NC(=O)CC[C@H](N)C(=O)O)C(=O)NCC(=O)O (HELM PEPTIDE1{[gGlu].L.G}$$$$V2.0)	0		104	125	0	Ki [4]: Not Active; IC50 [5]: Not Active; half-life [6]: 1 h; IC50 [9]: Not Active; Ki [10]: Not Active
CC(C)C[C@H](NC(=O)CC[C@H](N)C(=O)O)C(=O)NCC(=O)NO (HELM PEPTIDE1{[gGlu].L.G.[ON[*:1]]}$$$$V2.0)	76		44	1	98	IC50 [11]: 3.2 µM; Ki [12]: 2.5 µM; Ki [13]: Not Active
CC(C)C[C@H](NC(=O)CC[C@H](N)C(=O)O)C(=O)NCP(=O)(O)O	86	60	0			Ki [14]: 60 µM
CC(C)C[C@H](NC(=O)CC[C@H](N)C(=O)O)C(=O)NCc1nn[nH]n1	58		0			
CC(C)C[C@H](NC(=O)CC[C@H](N)C(=O)O)C(=O)NCB(O)O	95	17.2	1			Ki [14]: 81 µM and 18 µM
CCCCOC(=O)CNC(=O)[C@H](CC(C)C)NC(=O)CC[C@H](N)C(=O)O	0		102	3	26	
CC(C)C[C@H](NC(=O)CC[C@H](N)C(=O)O)C(=O)NCc1nnn[nH]1		138				
CC(C)C[C@H](NC(=O)CC[C@H](N)C(=O)O)C(=O)NCC(N)=O (HELM PEPTIDE1{[gGlu].L.G.[am]}$$$$V2.0)	0		93	22	89	IC50 [11]: 105 µM; Ki [13]: Not Active
Glutathionylspermidine synthase (Crithidia fasciculata), P90518 (protein) MSSLPHNHHYETHHRGTAEVPFDELIGVTPDGVPVISNGNEAHFSNLESITAACLPLSSFERKAPCKQPYRKMGVKWQCVEFVRRYLASRKAVWMTSLCTAEEVWREENLFVDVRDGRPVEVVRTPNKSTGPAPAVADIVVWGEGPETPFGHVAIVTEVCASCVRVAEQNQGFEKWPEDVPFSREIAMRTTESGEVELLDEDPLLGWVTVQAPFYNFDDGDLADSFRLVVGQGQILRQPFPKHVDVPWLNTGEECDTILKHSLVVDGNMGEGAHAEEGDVPGAFYFLDYDMFCRLGRAASSLHRIAMAATAKVLEDPESTHLLEHYFGVPPEIQPLLRRSWEMTPPMGGRFDFGYDGKNVVMLEYNCDSSGALLECCNTQEKMARFYGVSQGTSTGSFLGAKCVTYFQRLLTNEKVCPQHRLIHFMIDEDDEERYTARCMMGFAEQAGFRTKLCVKLVNFRYRDGPPSNAAPLATPCDHPTIVDGEDEEVLMVWKTWSWDTVLHQYHSQRSSSDAVNTPTLSDILLNNNIRVLEPLWKAVTGSKAILPFMHALAPDHEHMLAASFLPTREIISRHYISKPVNGRAGQNIMMYDPVTSPTELEGAPQQDICEALSQNASARSLLNGSPLPLSQSVDQTNECSPGKFFDSVLVYQQRLFLKKFDGKYFPIFCGWMVGDEFGGVVVREDTSKITKLSSMVVPARVVRDNVPLGVSYSDEGET						Km [15]: 245 µM; Vmax [15]: 15%; Km [16]: 34 µM; Km [17]: 34 µM
